Experiments:
Parameters in all cases: agar dilution MIC, growth inhibition of clinical Burkholderia isolates
B. vietnamiensis AU3997 = test system: T1, B. vietnamiensis AU3997; assay: microbe, parasite or virus in culture; settings: Burkholderia vietnamiensis, AU3997
T1 construct: AU3997
Excerpt: (§1) We evaluated the activity of cefepime-taniborbactam against a panel of 140 Bcc clinical isolates (i.e., species ambifaria, arboris, cenocepacia, cepacia, contaminans, diffusa, dolosa, multivorans, pseudomultivorans, pyrrocinia, seminalis, stabilis, ubonensis, and vietnamiensis) and 10 B. gladioli from the Burkholderia cepacia Research Laboratory and Repository (University of Michigan) ([22], [25], [31]) (Supplementary Material, Tables S1 and S2). K. pneumoniae ATCC 700603 carrying bla SHV-18 and K. pneumoniae ATCC BAA-1705 harboring bla KPC strains were used as controls for β-lactam and β-lactamase inhibitor integrity; all controls tested within the anticipated quality control ranges (Table S3). Minimum inhibitory concentration (MIC) results were interpreted using Clinical Laboratory Standards Institute (CLSI) breakpoints, where available ([32]). […] An alternative cefepime-taniborbactam provisional susceptible breakpoint of ≤16 µg/mL is supported by in vivo efficacy data from neutropenic murine infection models (thigh, complicated urinary tract, and lung) ([15] [–] [17]) and data from safety and pharmacokinetics studies in human volunteers ([33], [34]). The cefepime-taniborbactam antimicrobial activity was compared to cefepime, meropenem, meropenem-vaborbactam, and levofloxacin, to data published for first-line agents (e.g., ceftazidime and trimethoprim-sulfamethoxazole) and to those recommended by the CLSI for clinical testing (e.g., minocycline) against the Bcc and B. gladioli panel ([22], [32]). Of note, the MICs of all these agents were determined by the agar dilution method, which alongside broth microdilution, are recommended by the CLSI to assess the antimicrobial susceptibility of Bcc isolates ([32]).

B. vietnamiensis AU28056 = test system: T2, B. vietnamiensis AU28056; assay: microbe, parasite or virus in culture; settings: Burkholderia vietnamiensis, AU28056
T2 construct: AU28056
Excerpt: as §1

B. multivorans AU30760 = test system: T3, B. multivorans AU30760; assay: microbe, parasite or virus in culture; settings: Burkholderia multivorans, AU30760
T3 construct: AU30760
Excerpt: as §1

B. cenocepacia AU12571 = test system: T4, B. cenocepacia AU12571; assay: microbe, parasite or virus in culture; settings: Burkholderia cenocepacia, AU12571
T4 construct: AU12571
Excerpt: as §1

B. multivorans AU23995 = test system: T5, B. multivorans AU23995; assay: microbe, parasite or virus in culture; settings: Burkholderia multivorans, AU23995
T5 construct: AU23995
Excerpt: as §1

[1] = test system: T6, Burkholderia cepacia complex Bcc Indeterminate AU19821; assay: microbe, parasite or virus in culture; settings: Burkholderia cepacia
T6 construct: AU19821
Excerpt: as §1

B. gladioli AU26456 = test system: T7, B. gladioli AU26456; assay: organism not typed
T7 construct: AU26456
Excerpt: as §1

B. multivorans AU11233 = test system: T8, B. multivorans AU11233; assay: microbe, parasite or virus in culture; settings: Burkholderia multivorans, AU11233
T8 construct: AU11233
Excerpt: as §1

B. multivorans AU17135 = test system: T9, B. multivorans AU17135; assay: microbe, parasite or virus in culture; settings: Burkholderia multivorans, AU17135
T9 construct: AU17135
Excerpt: as §1

B. multivorans AU14371 = test system: T10, B. multivorans AU14371; assay: microbe, parasite or virus in culture; settings: Burkholderia multivorans, AU14371
T10 construct: AU14371
Excerpt: as §1

B. ambifaria AU20319 = test system: T11, B. ambifaria AU20319; assay: microbe, parasite or virus in culture; settings: Burkholderia ambifaria, AU20319
T11 construct: AU20319
Excerpt: as §1

B. cenocepacia AU14093 = test system: T12, B. cenocepacia AU14093; assay: microbe, parasite or virus in culture; settings: Burkholderia cenocepacia, AU14093
T12 construct: AU14093
Excerpt: as §1

B. multivorans AU25543 = test system: T13, B. multivorans AU25543; assay: microbe, parasite or virus in culture; settings: Burkholderia multivorans, AU25543
T13 construct: AU25543
Excerpt: as §1

B. multivorans AU19518 = test system: T14, B. multivorans AU19518; assay: microbe, parasite or virus in culture; settings: Burkholderia multivorans, AU19518
T14 construct: AU19518
Excerpt: as §1

B. cenocepacia AU10321 = test system: T15, B. cenocepacia AU10321; assay: microbe, parasite or virus in culture; settings: Burkholderia cenocepacia, AU10321
T15 construct: AU10321
Excerpt: as §1

B. multivorans AU30050 = test system: T16, B. multivorans AU30050; assay: microbe, parasite or virus in culture; settings: Burkholderia multivorans, AU30050
T16 construct: AU30050
Excerpt: as §1

[2] = test system: T17, Burkholderia cepacia complex Bcc Indeterminate AU14962; assay: microbe, parasite or virus in culture; settings: Burkholderia cepacia
T17 construct: AU14962
Excerpt: as §1

B. diffusa AU19637 = test system: T18, B. diffusa AU19637; assay: organism not typed
T18 construct: AU19637
Excerpt: as §1

B. multivorans AU25057 = test system: T19, B. multivorans AU25057; assay: microbe, parasite or virus in culture; settings: Burkholderia multivorans, AU25057
T19 construct: AU25057
Excerpt: as §1

B. cepacia AU13354 = test system: T20, B. cepacia AU13354; assay: microbe, parasite or virus in culture; settings: Burkholderia cepacia, AU13354
T20 construct: AU13354
Excerpt: as §1

B. multivorans AU21596 = test system: T21, B. multivorans AU21596; assay: microbe, parasite or virus in culture; settings: Burkholderia multivorans, AU21596
T21 construct: AU21596
Excerpt: as §1

[3] = test system: T22, B. pseudomultivorans AU19682; assay: organism not typed
T22 construct: AU19682
Excerpt: as §1

Measured: MIC

CO/N=C(\C(=O)N[C@@H]1C(=O)N2C(C(=O)[O-])=C(C[N+]3(C)CCCC3)CS[C@H]12)c1csc(N)n1 [cefepime]
16 µg/mL: B. vietnamiensis AU28056 | B. cenocepacia AU12571
2 µg/mL: B. multivorans AU30050
> 32 µg/mL: B. multivorans AU23995 | [1] | B. multivorans AU11233 | B. ambifaria AU20319 | B. cenocepacia AU14093 | B. cenocepacia AU10321 | [2] | B. cepacia AU13354 | B. multivorans AU21596 | [3]
4 µg/mL: B. gladioli AU26456 | B. multivorans AU17135 | B. multivorans AU25543
8 µg/mL: B. vietnamiensis AU3997 | B. multivorans AU30760 | B. multivorans AU14371 | B. multivorans AU25057
32 µg/mL: B. multivorans AU19518 | B. diffusa AU19637

C[C@H]1COc2c(N3CCN(C)CC3)c(F)cc3c(=O)c(C(=O)O)cn1c23 [levofloxacin]
> 32 µg/mL: B. cenocepacia AU14093 | B. cenocepacia AU10321 | B. multivorans AU21596
16 µg/mL: B. multivorans AU11233 | [3]
4 µg/mL: B. multivorans AU23995
8 µg/mL: B. vietnamiensis AU3997 | B. vietnamiensis AU28056 | B. cenocepacia AU12571 | B. multivorans AU25057 | B. cepacia AU13354
2 µg/mL: B. multivorans AU30760 | B. multivorans AU17135 | B. multivorans AU14371 | B. multivorans AU25543 | [2] | B. diffusa AU19637
0.5 µg/mL: B. gladioli AU26456
1 µg/mL: B. ambifaria AU20319 | B. multivorans AU30050
32 µg/mL: [1] | B. multivorans AU19518

C[C@@H](O)[C@H]1C(=O)N2C(C(=O)O)=C(S[C@@H]3CN[C@H](C(=O)N(C)C)C3)[C@H](C)[C@H]12 [meropenem]
32 µg/mL: B. multivorans AU21596
1 µg/mL: B. vietnamiensis AU3997 | B. gladioli AU26456 | B. multivorans AU25543
4 µg/mL: B. vietnamiensis AU28056 | B. multivorans AU17135 | B. multivorans AU14371 | B. ambifaria AU20319 | B. multivorans AU25057
16 µg/mL: [1] | B. multivorans AU19518 | B. cenocepacia AU10321
8 µg/mL: B. multivorans AU23995 | B. multivorans AU11233 | B. cenocepacia AU14093 | [2] | B. cepacia AU13354 | [3]
2 µg/mL: B. multivorans AU30760 | B. cenocepacia AU12571 | B. multivorans AU30050 | B. diffusa AU19637
